Assay results taken from patent US12043599B2, “Herbicidal compounds” (SYNGENTA PARTICIPATIONS AG, priority 2018, dated 2024).

Experiments:
Format in all cases: in vivo
Details in all cases: 250 g/h, evaluated after 13 days
Avena fatua (AVEFA) [1] = test: Post-emergence herbicidal glasshouse test, percentage damage
In short: (§1)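 Pot-grown grass weeds in standard soil were sprayed 1 day after sowing (pre-emergence) or after 8 days (post-emergence) with compound at 250 g/h in acetone/water (50:50) with 0.5% Tween 20. Glasshouse conditions were 24/16 °C day/night, 14 h light, 65% humidity. Damage was scored after 13 days on a five-point scale.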

[2] = test system: Alopecurus myosuroides (ALOMY); test: as above
In short: as §1

[3] = test system: Echinochloa crus-galli (ECHCG); test: as above
In short: as §1

Lolium perenne (LOLPE) [4] = test: as above
In short: as §1

Setaria faberi (SETFA) [5] = test: as above
In short: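 Wheat, barley and Setaria faberi were sprayed post-emergence after 8 days' growth (24/16 °C, 14 h light, 65% humidity) with compound in acetone/water (50:50) containing 0.5% Tween 20, at the indicated rates. On wheat, compounds were also applied with cloquintocet-mexyl at 50 g/ha. Damage was scored after 13 days on a five-point scale (5=80-100% to 1=0-19%).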

Avena fatua (AVEFA) [6] = test: Pre-emergence herbicidal glasshouse test, percentage damage
In short: as §1

Setaria faberi (SETFA) [7] = test: as above
In short: as §1

[8] = test system: Alopecurus myosuroides (ALOMY); test: as above
In short: as §1

[9] = test system: Echinochloa crus-galli (ECHCG); test: as above
In short: as §1

Lolium perenne (LOLPE) [10] = test: as above
In short: as §1

Compound | AVEFA POST percentage damage (five point scale) (Avena fatua (AVEFA) [1]) | ALOMY POST percentage damage (five point scale) [2] | ECHCG POST percentage damage (five point scale) [3] | LOLPE POST percentage damage (five point scale) (Lolium perenne (LOLPE) [4]) | SETFA POST percentage damage (five point scale) (Setaria faberi (SETFA) [5]) | AVEFA PRE percentage damage (five point scale) (Avena fatua (AVEFA) [6]) | SETFA PRE percentage damage (five point scale) (Setaria faberi (SETFA) [7]) | ALOMY PRE percentage damage (five point scale) [8] | ECHCG PRE percentage damage (five point scale) [9] | LOLPE PRE percentage damage (five point scale) (Lolium perenne (LOLPE) [10])
CC#Cc1cc(C)c(C2=C(OC(=O)OC)CC3(CCN(C(=O)OC(C)(C)C)CC3)CC2=O)c(C)c1 [Compound P21] | 5 (5=80-100%) | 5 (5=80-100%) | 5 (5=80-100%) | 5 (5=80-100%) | 5 (5=80-100%) | 4 (4=60-79%) | 5 (5=80-100%) | 5 (5=80-100%) | 5 (5=80-100%) | 5 (5=80-100%)
CC#Cc1cc(C)c(C2=C(OC(=O)c3ccccc3F)CC3(CCN(C(=O)c4ccccc4F)CC3)CC2=O)c(C)c1 [Compound P20] | 5 (5=80-100%) | 5 (5=80-100%) | 5 (5=80-100%) | 5 (5=80-100%) | 5 (5=80-100%) | 3 (3=40-59%) | 5 (5=80-100%) | 5 (5=80-100%) | 5 (5=80-100%) | 5 (5=80-100%)
CC#Cc1cc(C)c(C2C(=O)CC3(CCN(C(=O)NC(=O)c4ncccc4F)CC3)CC2=O)c(C)c1 [Compound A163] | 5 (5=80-100%) | 5 (5=80-100%) | 5 (5=80-100%) | 5 (5=80-100%) | 5 (5=80-100%) | 5 (5=80-100%) | 5 (5=80-100%) | 0 | 5 (5=80-100%) | 4 (4=60-79%)
CC#Cc1cc(C)c(C2C(=O)CC3(CCN(C(=O)Cc4ncccn4)CC3)CC2=O)c(C)c1 [Compound A102] | 5 (5=80-100%) | 5 (5=80-100%) | 5 (5=80-100%) | 5 (5=80-100%) | 5 (5=80-100%) | 5 (5=80-100%) | 5 (5=80-100%) | 2 (2=20-39%) | 5 (5=80-100%) | 5 (5=80-100%)
CC#Cc1cc(C)c(C2=C(OC(=O)C(C)OC)CC3(CCN(C(=O)C(C)OC)CC3)CC2=O)c(C)c1 (stereo not shown) [Compound P6] | 5 (5=80-100%) | 5 (5=80-100%) | 5 (5=80-100%) | 5 (5=80-100%) | 5 (5=80-100%) | 5 (5=80-100%) | 5 (5=80-100%) | 5 (5=80-100%) | 5 (5=80-100%) | 5 (5=80-100%)
CC#Cc1cc(C)c(C2=C(OC(=O)OC)CC3(CCN(C(=O)c4ccccn4)CC3)CC2=O)c(C)c1 [Compound P24] | 5 (5=80-100%) | 5 (5=80-100%) | 5 (5=80-100%) | 5 (5=80-100%) | 5 (5=80-100%) | 5 (5=80-100%) | 5 (5=80-100%) | 5 (5=80-100%) | 5 (5=80-100%) | 5 (5=80-100%)
CC#Cc1cc(C)c(C2C(=O)CC3(CCN(C(=O)NC(=O)c4ccc(C(F)(F)F)cn4)CC3)CC2=O)c(C)c1 [Compound A168] | 4 (4=60-79%) | 4 (4=60-79%) | 5 (5=80-100%) | 4 (4=60-79%) | 4 (4=60-79%) | 4 (4=60-79%) | 5 (5=80-100%) | 4 (4=60-79%) | 5 (5=80-100%) | 4 (4=60-79%)
CC#Cc1cc(C)c(C2C(=O)CC3(CCN(C(=O)c4ccc(C#N)cn4)CC3)CC2=O)c(C)c1 [Compound A20] | 5 (5=80-100%) | 5 (5=80-100%) | – | 5 (5=80-100%) | 5 (5=80-100%) | 5 (5=80-100%) | 5 (5=80-100%) | 5 (5=80-100%) | 5 (5=80-100%) | 5 (5=80-100%)
CC#Cc1cc(C)c(C2=C(O)CC3(CCN(C=O)CC3)CC2=O)c(C)c1 [Compound A96] | 5 (5=80-100%) | 5 (5=80-100%) | – | 5 (5=80-100%) | 5 (5=80-100%) | 5 (5=80-100%) | 5 (5=80-100%) | 5 (5=80-100%) | 5 (5=80-100%) | 5 (5=80-100%)
CC#Cc1cc(C)c(C2C(=O)CC3(CCN(S(=O)(=O)c4ccccc4F)CC3)CC2=O)c(C)c1 [Compound A17] | 5 (5=80-100%) | 5 (5=80-100%) | – | 5 (5=80-100%) | 5 (5=80-100%) | 5 (5=80-100%) | 5 (5=80-100%) | 5 (5=80-100%) | 5 (5=80-100%) | 5 (5=80-100%)
CC#Cc1cc(C)c(C2C(=O)CC3(CCN(C(=O)c4cccnn4)CC3)CC2=O)c(C)c1 [Compound A21] | 5 (5=80-100%) | 5 (5=80-100%) | – | 5 (5=80-100%) | 5 (5=80-100%) | 5 (5=80-100%) | 3 (3=40-59%) | 5 (5=80-100%) | 2 (2=20-39%) | 5 (5=80-100%)
CC#Cc1cc(C)c(C2C(=O)CC3(CCN(S(=O)(=O)Cc4ccon4)CC3)CC2=O)c(C)c1 [Compound A97] | 5 (5=80-100%) | 5 (5=80-100%) | – | 5 (5=80-100%) | 5 (5=80-100%) | 5 (5=80-100%) | 5 (5=80-100%) | 4 (4=60-79%) | 5 (5=80-100%) | 5 (5=80-100%)
CC#Cc1cc(C)c(C2C(=O)CC3(CCN(S(=O)(=O)c4cn(C)nc4C(F)(F)F)CC3)CC2=O)c(C)c1 [Compound A40] | 5 (5=80-100%) | 5 (5=80-100%) | – | 5 (5=80-100%) | 5 (5=80-100%) | 5 (5=80-100%) | 5 (5=80-100%) | 5 (5=80-100%) | 5 (5=80-100%) | 5 (5=80-100%)
CC#Cc1cc(C)c(C2C(=O)CC3(CCN(S(=O)(=O)CC4CC4)CC3)CC2=O)c(C)c1 [Compound A15] | 5 (5=80-100%) | 5 (5=80-100%) | – | 5 (5=80-100%) | 5 (5=80-100%) | 5 (5=80-100%) | 5 (5=80-100%) | 5 (5=80-100%) | 5 (5=80-100%) | 5 (5=80-100%)
